From the supplement of paper PMC10981050

How the values were obtained:
Assay in all cases: cell viability relative to vehicle control; higher = less cytotoxic
Details in all cases: SRSF2 genotype: SRSF2 WT
[1] = test system: MARIMO
Experimental: (§1)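 Isogenic SRSF2 WT and CRISPR SRSF2 P95 mutant clones of MOLM14, OCI-AML2 and MARIMO were exposed to ROCK inhibitors at 7 doses (0.037 to 29.9 µM) for 48 h. Viability was read by CellTiter-Glo luminescence and normalised to the vehicle control on each plate (%).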

[2] = test system: MOLM14
Experimental: as §1

[3] = test system: OCI-AML2
Experimental: as §1

O=C(NCc1cccc(O)c1)Nc1nc(-c2ccncc2)cs1 [RKI-1447]
cell viability [%]
Details	0.037 µM	0.129 µM	0.369 µM	0.997 µM	3.49 µM	9.97 µM	29.9 µM
[1]	102	101	101	98.4	94.49	75.9	20.3
[2]	97	80.3	70.7	66.31	60.68	33	1.24
[3]	98.1	73.5	44.7	34.5	27.9	22.8	4.32
